Test results as given in PubChem BioAssay (NCI).
Where “and” joins values, the source holds several entries; their conditions need not be identical. Equal entries are not always repeated.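 Five concentrations, 48 hours, 96-well plates. Here, GI50 denotes the concentration required for 50% inhibition of growth. TGI marks complete inhibition of growth.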

Assays:
Experiment in all cases: DTP human tumour cell line panel, 48 h
[1] = tested on: SN12C renal
[2] = tested on: U251 CNS
[3] = tested on: T-47D breast
[4] = tested on: OVCAR-8 ovarian
[5] = tested on: DU-145 prostate
[6] = tested on: LOX IMVI melanoma
[7] = tested on: MDA-MB-435

Compound	GI50 [1]	TGI [1]	GI50 [2]	TGI [2]	GI50 [3]	TGI [3]	GI50 [4]	TGI [4]	GI50 [5]	TGI [5]	GI50 [6]	TGI [6]	GI50 [7]	TGI [7]
O=c1[nH]nc(-c2ccccc2)c2c(-c3ccccc3)onc12	0.748 µM	> 100 µM	0.517 µM	> 100 µM	0.595 µM	> 46 µM	0.812 µM	> 100 µM	1.79 µM	27.2 µM	0.877 µM	> 100 µM		
O=[N+]([O-])c1cc2c(ccc3occc32)o1	2.96 µM	> 100 µM	3.56 µM	16.4 µM	41.3 µM	> 100 µM	2.45 µM	21 µM	1.16 µM	9.84 µM	1.25 µM	3.85 µM		
CC(=O)n1c(-c2ccc(Cl)c(Cl)c2)cn(-c2ccc(Cl)cc2)c1=O	31.8 µM	> 100 µM	16.3 µM	37.5 µM	19.3 µM	49.5 µM	23.1 µM	76.5 µM	17.4 µM	45.8 µM	83.6 µM	> 100 µM	84.1 µM	> 100 µM
CC1=NN(C(=O)c2nn(-c3ccc(Cl)cc3)cc2O)C(=O)C1	1.81 µM	> 100 µM	0.734 µM	> 100 µM	2.87 µM	> 100 µM	1.49 µM	> 100 µM	8.08 µM	> 100 µM	2.66 µM	> 100 µM	4.12 µM	> 100 µM
CN(C)c1ncnc2c1ccn2C1OC(CO)C(O)C1O (centres undefined)	2.62 µM	> 100 µM	> 100 µM	> 100 µM	0.0621 µM	1.61 µM	0.89 µM	6.81 µM	0.386 µM	2.94 µM	0.559 µM	12.2 µM	2.55 µM	> 29.1 µM
COc1cc2c(cc1OCCCCCn1c3ccccc3c3ccccc31)N=C[C@@H]1CCCN1C2=O	1.94 µM	4.16 µM	1.59 µM	3.19 µM	2.79 µM	9.24 µM	2.56 µM	7.17 µM	2.23 µM	4.67 µM	2.01 µM	4.88 µM	1.69 µM	3.29 µM
CC(C)=CCc1cc(C2COc3cc4c(c(O)c3C2=O)C=CC(C)(C)O4)c(O)cc1O (centres undefined)		26.3 µM		35.7 µM		27.2 µM		51.2 µM		27.9 µM		43.4 µM		33.4 µM
O=C(Cn1c2ccccc2c2ccncc21)N/N=C\c1ccc2ccccc2c1	14.7 µM	46.6 µM	14.5 µM	29.5 µM	25.2 µM	> 100 µM	27.8 µM	> 100 µM	23.9 µM	> 100 µM	28.6 µM	> 100 µM	17.1 µM	63.3 µM
COc1ccc2c(c1OC)C(=O)O[C@@H]2[C@H]1c2c(c(Br)c3c(c2OC)OCO3)CCN1C	> 100 µM	> 100 µM	8.8 µM	> 100 µM	80.5 µM	> 100 µM	32.4 µM	> 100 µM	> 100 µM	> 100 µM	6 µM	> 100 µM	3.55 µM	29.6 µM
CN(CCCN(C)CCC1CCCCC1)CCC1CCCCC1	6.49 µM	20.6 µM	1.97 µM	7.48 µM	1.64 µM	4.15 µM	4.85 µM	18.4 µM	8.51 µM	20.8 µM	1.61 µM	3.55 µM	0.755 µM	2.27 µM
O=C1c2ccn(CCCCN(CCO)CCO)c2C(=O)c2c1c(O)c1ccccc1c2O	6.85 µM	25 µM			22.9 µM	> 69.6 µM	3.61 µM	> 100 µM	15.2 µM	34.8 µM	1.04 µM	3.64 µM	3.04 µM	
Cc1ccc(-c2c3c(N)c4c(nc3nc3c2c(C)nn3-c2ccccc2)CCC4)cc1	1.83 µM	3.74 µM	1.95 µM	4.01 µM	2.18 µM	5.08 µM	2.32 µM	5.89 µM	2.21 µM	4.68 µM	1.98 µM	3.99 µM	17.1 µM	34.2 µM
CCc1c2c(nc3ccc(OCc4ccc(B5OC(C)(C)C(C)(C)O5)cc4)cc13)-c1cc3c(c(=O)n1C2)COC(=O)[C@]3(O)CC	< 0.01 µM	> 100 µM	< 0.01 µM		< 0.01 µM	> 100 µM	0.0296 µM	> 100 µM	0.0223 µM	> 49.8 µM	< 0.01 µM	0.355 µM	0.101 µM	> 100 µM
Cc1cc(Cl)ccc1Nc1nc(C(F)(F)F)ccc1C(=O)Nc1cccc(C(F)(F)F)c1	3.23 µM	11.6 µM	3 µM	9.72 µM	4.53 µM	23.8 µM	4.32 µM	22.7 µM	3.17 µM	15.6 µM	2.79 µM	8.55 µM	3.76 µM	16.1 µM
CN(C)C(=S)SCC(N)=O		> 100 µM		> 100 µM		> 100 µM		> 100 µM		> 100 µM		> 100 µM		> 100 µM
O=C1C=C(OCCCl)C(=O)c2c(O)ccc(O)c21	1.58 µM	0.526 µM and 3.03 µM	2.76 µM	3.33 µM and 7.48 µM		4.52 µM	1.59 µM	5.08 µM and 3.03 µM	1.01 µM	0.746 µM and 2.29 µM	0.465 µM	0.392 µM and 1.83 µM	0.157 µM	0.389 µM and 0.294 µM
O=CN1N=C(c2ccc(Nc3ccnc4cc(Cl)ccc34)cc2)CC1c1ccc(Cl)cc1 (centres undefined)	0.978 µM	> 100 µM	0.511 µM	> 100 µM	1.56 µM	> 100 µM	3.22 µM	> 100 µM	1.94 µM	> 100 µM	0.599 µM	> 100 µM	0.198 µM	0.48 µM
O=C1NC(SCc2ccc(F)cc2)=N/C1=C/c1cccc(OCc2ccc(Cl)cc2)c1	4.52 µM	> 100 µM	3.83 µM	19.6 µM	13.9 µM	> 100 µM	18.8 µM	> 100 µM	> 100 µM	> 100 µM	6 µM	> 100 µM	> 100 µM	> 100 µM
